Measured values from patent US20090170930A1, “METHODS FOR DIRECTING DIFFERENTIATION OF CLONOGENIC NEURAL STEM CELLS WITH COUMARINS” (THE SECOND MILITARY MEDICAL UNIVERSITY, priority 2006, published 2009).

Key:
Rat NSCs = assay: NG2 immunocytochemistry cell count: differentiation of NSCs to NG2 positive cells (OPCs); format: cell-based; conditions: NSC neurospheres, mean±S.D.
Method: (§1) Rat NSCs isolation and culture were performed as described by Weiss et al (Weiss et al., 1996). Briefly, the cortex of 1- to 2-day-old newborn SD rats were removed and placed into sterile chilled Hank's Balanced Salt Solution. After the meninges were carefully removed, tissues were cut into tiny pieces and gently triturated with a Pasteur pipette at least 10-15 times. The suspended tissue was centrifuged at 500 g for 5 min and the pellets were re-suspended in a proliferation medium (DMEM/F12 nutrient (1:1) with additional 2% B27 (Invitrogen Corporation, Carlsbad, Calif.) supplement and 20 ng/mL bFGF (PeproTech, Rocky Hill, N.J.)). The cells were plated at a density of 50 cells/mL in non-coated […] flasks. Every 4 days, bFGF was added along with a partial medium change. After 7 days in vitro, cells formed floating neurospheres. To subculture NSCs, the neurospheres were centrifuged at 600 g for 5 min when the diameters of neurospheres reached a size of approximately 100-200 μm; they were then re-suspended in fresh medium and mechanically dissociated into single cells. Single cells subsequently were seeded into proliferation medium at a density of 10 cells/mL per flask. This procedure produced a second generation of neurospheres, and additional generations of NSCs were produced using this same procedure.
Neurospheres were plated into 12-well plates on poly-D-lysine coated 35 mm dishes at a density of 10-20 spheres per dish in 1.5 mL medium. 1 hour after plating, compounds were added at a final concentration 100 μM unless otherwise indicated. After 5 days, cells were examined with Phase contrast image or immunocytochemistry.
Identification of the different kinds of cells was performed using indirect immunocytochemistry. Cells on dishes were fixed with 4% paraformaldehyde at room temperature for 20 min and washed three times in succession with 0.01 M PBS for 5 min each time. Cells were then treated with 0.3% Triton 100 containing 10% normal goat serum at room temperature for 30 min (Xu et al., 2006). Cells were then incubated with primary antibodies at 4° C. for 12-16 h and washed three times with 0.01 M phosphate buffered saline (PBS) for 5 min each time. FITC-conjugated secondary antibodies were added to the cells, and the cells were incubated at 37° C. for 40 min. After three 5 min PBS washes, Hochest 33258 nuclear stain was added at room temperature for 10 min, followed by two more 5 min PBS rinses. The dishes were examined by a fluorescence microscopy. The primary antibodies included anti-GFAP (1:200; rabbit; Promega), anti-nestin (1:500; Mouse; Chemicon); anti-NG2(1:200; Mouse; Chemicon), anti-MBP (1:50; Mouse; Chemicon), anti-04 (1:100; Mouse; Chemicon), anti-RIP (1:100; Mouse; Chemicon), anti-olig2 (1:100; rabbit; Abcam). The secondary antibodies were FITC-labeled antibodies to rabbit IgG (1:200) and TRITIC-labeled antibodies to mouse IgG (1:200). Immunostained preparations were examined with an IX70 Olympus microscope equipped for phase contrast and epi-fluorescence. Light from a 75 W xenon arc lamp (AH2-RX, Olympus) passed through filter sets (Chroma) to generate excited light for Hochest 33258, FITC and TRITIC stains. All image acquisitions were finished with computer-controlled CCD (Micromax 5 MHz system, Roper Princeton Instruments) and MetaMorph Imaging System version 3.6 (Universal Imaging Corporation). To determine the number of cells expressing a particular antigen, 100 fields per sample were examined and totaled. Observers without knowledge of the treatment condition counted the numbers of positive cells for NG2, compared to total numbers of progeny of NSCs determined by counting Hochest 33258 staining cell nuclei. Results are given as mean±S.D. of data for six samples from three independent experiments. Statistical analyses were carried out using Student's t-test with SPSS software (Version 10.1). […]

NSCs = assay: Primary compound screen of NSCs, phase contrast morphology; format: cell-based, rat; conditions: 100 μM, 5 days, phase contrast microscope
Method: as §1, with “procedure. […]” for “procedure.”

With `COc1cc2cc(Oc3ccc4ccc(=O)oc4c3)c(=O)oc2cc1O[C@@H]1O[C@H](CO)[C@@H](O)[C@H](O)[C@H]1O` [Daphnoretin-7-O-β-D-glucopyranoside] as the molecule, how does the “The ratio of NG2 positive cells of the total cells (%)” value (shortened to “The ratio of NG2 positive cells … (%)”) (Rat NSCs; Dose 1 μM) read?
Its value is 1%.

And the “The ratio of NG2 positive cells … (%)” value (Rat NSCs; Dose 10 μM)?
The value was 1%.

What about the “The ratio of NG2 positive cells … (%)” value (Rat NSCs; Dose 100 μM) of the same molecule?
Its value is 1%.

And the “The ratio of NG2 positive cells … (%)” value (Rat NSCs; Dose 1 mM)?
The value was 1%.

Which results are given for `O=c1ccc2cc(O)c(O)cc2o1` [Aesculetin]?
The ratio of NG2 positive cells of the total cells (%) (Rat NSCs; Dose 1 μM): 53 ± 2.4 %; The ratio of NG2 positive cells of the total cells (%) (Rat NSCs; Dose 10 μM): 63 ± 2.9 %; The ratio of NG2 positive cells of the total cells (%) (Rat NSCs; Dose 100 μM): 68 ± 2.7 %; The ratio of NG2 positive cells of the total cells (%) (Rat NSCs; Dose 1 mM): 75 ± 1.6 %

What does the source list for `O=c1ccc2cc(O[C@@H]3O[C@H](CO)[C@@H](O)[C@H](O)[C@H]3O)c(O)cc2o1` [Esculetin-6-β-D-glucopyranoside]?
The ratio of NG2 positive cells of the total cells (%) (Rat NSCs; Dose 1 μM): 67 ± 4.6 %; The ratio of NG2 positive cells of the total cells (%) (Rat NSCs; Dose 10 μM): 72 ± 3.5 %; The ratio of NG2 positive cells of the total cells (%) (Rat NSCs; Dose 100 μM): 70 ± 3.9 %; The ratio of NG2 positive cells of the total cells (%) (Rat NSCs; Dose 1 mM): 85 ± 5.2 %

Which results are given for `COc1cc(O)c2c(=O)cc(-c3ccc(O)cc3)oc2c1` [Genkwanin]?
The ratio of NG2 positive cells of the total cells (%) (Rat NSCs; Dose 1 μM): 23 ± 2.3%; The ratio of NG2 positive cells of the total cells (%) (Rat NSCs; Dose 10 μM): 1%; The ratio of NG2 positive cells of the total cells (%) (Rat NSCs; Dose 100 μM): 1%; The ratio of NG2 positive cells of the total cells (%) (Rat NSCs; Dose 1 mM): 1%

Which results are given for `COc1cc2ccc(=O)oc2cc1O` [Scopoletin]?
The ratio of NG2 positive cells of the total cells (%) (Rat NSCs; Dose 1 μM): 62 ± 5.6 %; The ratio of NG2 positive cells of the total cells (%) (Rat NSCs; Dose 10 μM): 63 ± 6.3 %; The ratio of NG2 positive cells of the total cells (%) (Rat NSCs; Dose 100 μM): 70 ± 6.9 %; The ratio of NG2 positive cells of the total cells (%) (Rat NSCs; Dose 1 mM): 68 ± 6.7 %

Which “The ratio of NG2 positive cells … (%)” value (Rat NSCs; Dose 1 μM) does the source give for `COc1cc2oc(=O)cc(-c3ccccc3)c2cc1O` [Dalbergin] here?
Its value is 1%.

What about the “The ratio of NG2 positive cells … (%)” value (Rat NSCs; Dose 10 μM) of the same molecule?
The value was 1%.

What about the “The ratio of NG2 positive cells … (%)” value (Rat NSCs; Dose 100 μM) of the same molecule?
The value was 1%.

What about the “The ratio of NG2 positive cells … (%)” value (Rat NSCs; Dose 1 mM) of the same molecule?
Its value is 1%.

Which results are given for `O=c1ccc2ccc(Oc3cc4ccc(O)cc4oc3=O)cc2o1` [Edgeworin]?
The ratio of NG2 positive cells of the total cells (%) (Rat NSCs; Dose 1 μM): 60 ± 2.6 %; The ratio of NG2 positive cells of the total cells (%) (Rat NSCs; Dose 10 μM): 63 ± 2.9 %; The ratio of NG2 positive cells of the total cells (%) (Rat NSCs; Dose 100 μM): 68 ± 3.5 %; The ratio of NG2 positive cells of the total cells (%) (Rat NSCs; Dose 1 mM): 81 ± 3.1 %

Which “The ratio of NG2 positive cells … (%)” value (Rat NSCs; Dose 1 μM) does the source give for `COc1cc2cc(Oc3ccc4ccc(=O)oc4c3)c(=O)oc2cc1OC` [Isodaphnoretin] here?
Its value is 15.6 ± 1.8%.

And the “The ratio of NG2 positive cells … (%)” value (Rat NSCs; Dose 10 μM)?
Its value is 1%.

What about the “The ratio of NG2 positive cells … (%)” value (Rat NSCs; Dose 100 μM) of the same molecule?
Its value is 1%.

And the “The ratio of NG2 positive cells … (%)” value (Rat NSCs; Dose 1 mM)?
The value was 1%.

What does the source list for Isopsoralen?
The ratio of NG2 positive cells of the total cells (%) (Rat NSCs; Dose 1 μM): 21 ± 1.6%; The ratio of NG2 positive cells of the total cells (%) (Rat NSCs; Dose 10 μM): 1%; The ratio of NG2 positive cells of the total cells (%) (Rat NSCs; Dose 100 μM): 1%; The ratio of NG2 positive cells of the total cells (%) (Rat NSCs; Dose 1 mM): 1%

`COc1ccc2ccc(=O)oc2c1` [7-methoxy coumarin] was tested. Which “The ratio of NG2 positive cells … (%)” value (Rat NSCs; Dose 1 μM) did it give?
The value was 16.7 ± 2.2%.

And the “The ratio of NG2 positive cells … (%)” value (Rat NSCs; Dose 10 μM)?
Its value is 1%.

What about the “The ratio of NG2 positive cells … (%)” value (Rat NSCs; Dose 100 μM) of the same molecule?
The value was 1%.

And the “The ratio of NG2 positive cells … (%)” value (Rat NSCs; Dose 1 mM)?
Its value is 1%.

With `C[C@@H]1O[C@@H](Oc2ccc3ccc(=O)oc3c2-c2c(O)ccc3ccc(=O)oc23)[C@H](O)[C@H](O)[C@H]1O` [Edgeworoside C] as the molecule, how does the “The ratio of NG2 positive cells … (%)” value (Rat NSCs; Dose 1 μM) read?
The value was 1%.

And the “The ratio of NG2 positive cells … (%)” value (Rat NSCs; Dose 10 μM)?
Its value is 1%.

And the “The ratio of NG2 positive cells … (%)” value (Rat NSCs; Dose 100 μM)?
The value was 1%.

What about the “The ratio of NG2 positive cells … (%)” value (Rat NSCs; Dose 1 mM) of the same molecule?
Its value is 1%.

For `COc1cc2cc(Oc3ccc4ccc(=O)oc4c3)c(=O)oc2cc1O` [Daphnoretin], which “The ratio of NG2 positive cells … (%)” value (Rat NSCs; Dose 1 μM) is on record?
Its value is 65 ± 5.3 %.

What about the “The ratio of NG2 positive cells … (%)” value (Rat NSCs; Dose 1 μM, listed as daphnoretin) of the same molecule?
Its value is 65±5.3%.

And the “The ratio of NG2 positive cells … (%)” value (Rat NSCs; Dose 10 μM)?
The value was 87 ± 7.5 %.

And the “The ratio of NG2 positive cells … (%)” value (Rat NSCs; Dose 10 μM, listed as daphnoretin)?
Its value is 87±7.5%.

What about the “The ratio of NG2 positive cells … (%)” value (Rat NSCs; Dose 100 μM) of the same molecule?
The value was 92 ± 8.6 %.

And the “The ratio of NG2 positive cells … (%)” value (Rat NSCs; Dose 100 μM, listed as daphnoretin)?
The value was 92±8.6%.

What about the “The ratio of NG2 positive cells … (%)” value (Rat NSCs; Dose 1 mM) of the same molecule?
Its value is 95 ± 6.9 %.

And the “The ratio of NG2 positive cells … (%)” value (Rat NSCs; Dose 1 mM, listed as daphnoretin)?
Its value is 95±6.9%.

And the “generation of round bipolar or multipolar morphology cells (probably OPCs)” value (NSCs)?
The value was “markedly enhance the generation of round bipolar or multipolar morphology cells”.

How did the “The ratio of NG2 positive cells … (%)” value (Rat NSCs; Dose 1 μM) turn out when `O=c1ccc2ccc(O)cc2o1` [7-hydroxycoumarin] was run?
Its value is 68 ± 6.5 %.

What about the “The ratio of NG2 positive cells … (%)” value (Rat NSCs; Dose 10 μM) of the same molecule?
The value was 76 ± 6.6 %.

And the “The ratio of NG2 positive cells … (%)” value (Rat NSCs; Dose 100 μM)?
The value was 89 ± 9.3 %.

And the “The ratio of NG2 positive cells … (%)” value (Rat NSCs; Dose 1 mM)?
The value was 92 ± 8.7 %.
